In ChEMBL document CHEMBL1136618, “Bis(acridinylthiourea)platinum(II) complexes: synthesis, DNA affinity, and biological activity in glioblastoma cells” (Bioorg Med Chem Lett, 2003) one finds Kb data, which are given here for two molecules.

The assay concerns Nucleic Acid. In words: Intrinsic binding constant in calf thymus DNA. It is filed as nucleic-acid assay, Bos taurus.

The molecule `CNc1c2ccccc2nc2ccccc12` had a Kb of 110000 M⁻¹.
As for `CNC(=S)N(C)CCNc1c2ccccc2nc2ccccc12`, the Kb was found to be 1500000 M⁻¹.
